Measured values as given in US20080300263A1, “Pyrazolo [1,5-a] pyrimidine compounds and pharmaceutical compositions containing them” (EiRx Therapeutics plc, priority 2005, published 2008).
pEC50: −log10 of the molar value. Like-named read-outs stand apart in the source and are kept apart here.

Key:
FRAT2-C9M-TF1 cells [1] = assay: EC50 titration, Alamar Blue, suspension cells; assay type: cell-based, Human; conditions: for pEC50: Homo sapiens, 72 h, Alamar Blue
Method: (§1) On the day of the assay compounds are used to prepare dilution series on Titration Plates which are plated at ten times their final screening concentration in 10 μl aliquots.
(§2) Suspension cells are split 24 hours prior to drug treatment in order to bring the cultures into the log phase of growth. On the day of the assay the cells are plated directly into the Titration Plates at the appropriate pre-determined seeding density (Table 1) in 90 μl volumes thus reducing the concentration of the compounds to their final test concentration. The plates are incubated for 72 hours at 37° C. and 5% CO2 after which time they are assayed by Alamar Blue.
(§3) The EC50 values are calculated using the values obtained from the Alamar Blue readout which are converted into a “Percentage of the Untreated Control” and using Graph Pad Prism these values are plotted against the logarithm of the test concentration. Using a non-linear regression analysis a sigmoidal dose-response curve is generated from which the EC50 is determined.

C9M-TF1 cells [2] = assay: EC50 titration, Alamar Blue, suspension cells; assay type: cell-based; conditions: Homo sapiens, 72 h
Method: as §1, §2, §3

[3] = system: colon cancer cell line HT29; assay: EC50 titration, Alamar Blue, adherent cells; assay type: cell-based; conditions: Homo sapiens, HT-29, 72 h
Method: as §1
(§4) For adherent cell lines plated 24 hours previously, a 90 μl volume of the appropriate cell culture medium is then added to each well of the Titration Plates and mixed by repeated aspiration/dispensing, thus taking the compounds to their final test concentration. Once the Titration Plates have been prepared the media is removed from all wells of the cell culture plate and the contents of the Titration Plates are then transferred to the appropriate wells of their relevant Test Plates and incubated for 72 h at 37° C. and 5% CO2 after which time they are assayed by Alamar Blue. Using a combination of Microsoft Excel and Graph Pad Prism, EC50s are determined.
as §3

[4] = system: non-transformed breast cell line MCF10A; assay: EC50 titration, Alamar Blue, adherent cells; assay type: cell-based; conditions: Homo sapiens, MCF-10A, 72 h
Method: as §1, §4, §3

[5] = system: breast cancer cell line MCF7; assay: EC50 titration, Alamar Blue, adherent cells; assay type: cell-based; conditions: Homo sapiens, 72 h
Method: as §1, §4, §3

[6] = system: U1810 Non Small Cell Lung Carcinoma; assay: Primary high-throughput screen, Alamar Blue, adherent cells; assay type: cell-based; conditions: U-1810; compound at 10 μM, 72 h; read-out: percentage kill, U1810
Method: (§5) Adherent cells are plated at a pre-determined seeding density (Table 1) in flat-bottom 96 well plates 24 hours prior to drug treatment. The cell lines are plated in 100 μl volumes in each well. Cells are plated in all wells apart from those in Column 12 which contain 100 μL normal culture medium alone. These plates will be known as the Test Plates. The Test Plates are labelled with a Daughter Plate ID.
(§6) Daughter Plates containing 10 μl of a […] solution of test compound selected from among the candidate compounds stored at […] are thawed at room temperature. A 10 μL volume of 0.1% DMSO in PBS is added to all wells of Column 12 and the wells in Row A-F of Column 1. A 10 μl volume of a pre-determined concentration of the P13-Kinase inhibitor LY294002 is added to wells in Row G and H of Column 1. A 90 μl volume of the appropriate cell culture medium is then added to each well and mixed by repeated aspiration/dispensing. The compounds are at a final test concentration of 10 μM.
(§7) Once the Daughter Plates have been prepared the media is removed from all wells of the cell culture plate using an 8-Channel Vacuum Aspirator. The contents of the Daughter Plates are then transferred to the appropriate wells of their relevant Test Plates and the Test Plates are incubated for 72 h at 37° C. and 5% CO2. At the end of this period Test Plates are assayed by Alamar Blue. A 10 μl volume of Alamar Blue is added to all wells of the Test Plate. The Test Plates are incubated for […] at 37° C. and 5% CO2 and finally read using the BioTek SYNERGY plate reader (Excitation 530125 nm-Emission 590135 nm). Percentage inhibition is determined using Microsoft Excel spreadsheet calculations.
(§8) The figures appearing in the columns are the percentage kill achieved by that compound at 10 μM.

[7] = system: CACO2 Colon adenocarcinoma; assay: as above; assay type: cell-based; conditions: Homo sapiens, Caco-2; compound at 10 μM, 72 h; read-out: percentage kill, CAC02
Method: as §5, §6, §7, §8

[8] = system: HT29 Colorectal adenocarcinoma; assay: as above; assay type: cell-based; conditions: Homo sapiens, HT-29; compound at 10 μM, 72 h; read-out: percentage kill, HT29
Method: as §5, §6, §7, §8

[9] = system: A549 Non Small Cell Lung Carcinoma; assay: as above; assay type: cell-based; conditions: Homo sapiens, compound at 10 μM, 72 h, read-out: percentage kill, A549
Method: as §5, §6, §7, §8

[10] = system: NCI ADR RES Breast adenocarcinoma (pleural effusion); assay: as above; assay type: cell-based; conditions: Homo sapiens, compound at 10 μM, 72 h, read-out: percentage kill, NCI ADR RES
Method: as §5, §6, §7, §8

[11] = system: LS123 Colon adenocarcinoma (Dukes' type B); assay: as above; assay type: cell-based; conditions: Homo sapiens, LS-123; compound at 10 μM, 72 h; read-out: percentage kill, LS123
Method: as §5, §6, §7, §8

[12] = system: SW480 Colon adenocarcinoma (Dukes' type B); assay: as above; assay type: cell-based; conditions: Homo sapiens, compound at 10 μM, 72 h, read-out: percentage kill, SW480
Method: as §5, §6, §7, §8

[13] = system: PC3 Prostate carcinoma (bone metastasis); assay: as above; assay type: cell-based; conditions: compound at 10 μM, 72 h; read-out: percentage kill, PC3
Method: as §5, §6, §7, §8

[14] = system: MCF7 Mammary gland adenocarcinoma; assay: as above; assay type: cell-based; conditions: Homo sapiens, compound at 10 μM, 72 h, read-out: percentage kill, MCF7
Method: as §5, §6, §7, §8

[15] = system: FRAT2 overexpresing TF1 (FRAT2-C9M-TF1 cells); assay: Primary high-throughput screen, Alamar Blue, suspension cells; assay type: cell-based; conditions: Homo sapiens, compound at 10 μM, 72 h
Method: as §6, §7
(§9) Suspension cells are split 24 hours prior to drug treatment in order to bring the cultures into the log phase of growth. On the day of the assay the cells are plated directly into the Daughter Plates at the appropriate pre-determined seeding density (Table 1) in 90 μl volumes, the concentration of the test compounds thus being reduced to 10 μM. Cells are plated in all wells apart from those in Column 12 which contain 901 normal culture medium alone. The plates are incubated for 72 h at 37° C. and 5% CO2 after which time they are assayed by Alamar Blue as per the preceding example.
as §8

C9M-TF1 cells [16] = assay: as above; assay type: cell-based; conditions: Homo sapiens, 72 h, compound at 10 μM, read-out: percentage kill, C9M
Method: as §6, §7, §9, §8

LoVo = assay: EC50 titration, Alamar Blue; assay type: cell-based; conditions: Homo sapiens
Method: as §1, §4, §3

HCT116 = assay: EC50 titration, Alamar Blue; assay type: cell-based; conditions: Homo sapiens, HCT-116
Method: as §1, §4, §3

FRAT2-C9M-TF1 cells [17] = assay: LY294002 control plate titration, Alamar Blue; assay type: cell-based; conditions: Homo sapiens, 72 h, FIG. 8
Method: (§10) This example describes an assay to examine the effect of the PI3K inhibitor LY294002 on cell survival for both FRAT2-[…]-TF1 or […]-TF1 cells, as determined by Alamar Blue. The growth factor GMCSF mediates its survival effect through the PI3/AKT pathway. Consequently, inhibitors of this pathway will increase apoptosis in pathway-dependent cell lines. Both FRAT2-[…]-TF1 or […]-TF1 are split 24 hours prior to drug treatment in order to bring the cultures into the log phase of growth. On the day of the assay the cells are plated directly into a 96 well microtitre plates containing 10 uL volumes of a serial dilutions of LY294002, such that there was a final cell number of 5000 cells per well in 90 uL volumes thus reducing the concentration of the compounds to their final test concentration. The plates are incubated for 72 h at 37° C. and 5% CO2 after which time they are assayed by Alamar Blue. […] The overexpression of FRAT2 leads to the stabilization β-catenin through disassociation of GSK3β from Axin and through the inhibition of β-catenin phosphorylation which results in an increased level of β-catenin in the nucleus of the cell where it forms a complex with the HMB box transcription factors LEF and TCF as well as with CREB Binding Protein. […]

C9M-TF1 cells [18] = assay: LY294002 control plate titration, Alamar Blue; assay type: cell-based; conditions: Homo sapiens, 72 h, FIG. 8
Method: as §10

colon cancer = conditions: cited from earlier work
[19] = minus GMCSF, read-out: percentage kill, FRAT2−
[20] = plus GMCSF, read-out: percentage kill, FRAT2+

Row | Compound | pEC50 [3] | pEC50 [5] | pEC50 (LoVo) | pEC50 (FRAT2-C9M-TF1 cells [1]; absence of growth factor) | pEC50 (FRAT2-C9M-TF1 cells [1]; presence of growth factor) | pEC50 (C9M-TF1 cells [2]) | pEC50 [4] | inhibition at 10 µM [6] | inhibition at 10 µM [7] | inhibition at 10 µM [8] | inhibition at 10 µM [9] | inhibition at 10 µM [10] | inhibition at 10 µM [11] | inhibition at 10 µM [12] | inhibition at 10 µM [13] | inhibition at 10 µM [14] | inhibition at 10 µM [15, 19] | inhibition at 10 µM [15, 20] | inhibition at 10 µM (C9M-TF1 cells [16]; first C9M column) | inhibition at 10 µM (C9M-TF1 cells [16]; second C9M column) | other results
1 | COc1ccc(-c2cnn3c(NCc4ccccn4)ccnc23)cc1OC [Compound 2] | 5.36 | 5.65 | 5.66 | 5.20 | 5.15 | 4.62 | 4.69 | 23% | 66% | 60% | 18% | 73% | 91% | 68% | 4% | 68% | 57% | 33% | -2% | 0% | pEC50 (HCT116): 5.52
2 | COc1ccc(-c2cnn3c(NCc4ccccn4)ccnc23)cc1 [Compound 3] | 6.13 | 6.08 | 5.66 | 5.38 | 5.65 | 5.25 | 5.14 | 15% | 58% | 80% | 13% | 66% | 95% | 64% | -20% | 85% | 76% | 40% | 8% | -12% | pEC50 (HCT116): 5.66
3 | COc1ccc(-c2cnn3c(NCc4ccccn4)ccnc23)cn1 [Compound 9] | 5.70 | 5.77 | – | 5.47 | 5.69 | 4.75 | 4.89 | 52% | 65% | 69% | 7% | 64% | 80% | 58% | 9% | 76% | 62% | 15% | 9% | -5% | –
4 | Avastin: FDA-approved monoclonal antibody (Genentech) blocking vascular endothelial growth factor (VEGF) | – | – | – | – | – | – | – | – | – | – | – | – | – | – | – | – | – | – | – | – | lived longer than patients on the standard regimen alone (colon cancer): about five

Continued, in another order:

Row | pEC50 [3] | pEC50 [5] | pEC50 (LoVo) | Compound | pEC50 (FRAT2-C9M-TF1 cells [1]; absence of growth factor) | pEC50 (FRAT2-C9M-TF1 cells [1]; presence of growth factor) | pEC50 (C9M-TF1 cells [2]) | pEC50 [4] | inhibition at 10 µM [6] | inhibition at 10 µM [7] | inhibition at 10 µM [8] | inhibition at 10 µM [9] | inhibition at 10 µM [10] | inhibition at 10 µM [11] | inhibition at 10 µM [12] | inhibition at 10 µM [13] | inhibition at 10 µM [14] | inhibition at 10 µM [15, 19] | inhibition at 10 µM [15, 20] | inhibition at 10 µM (C9M-TF1 cells [16]; first C9M column) | inhibition at 10 µM (C9M-TF1 cells [16]; second C9M column) | other results
5 | 5.75 | 5.73 | – | Cc1csc(-c2cnn3c(NCc4ccccn4)ccnc23)c1 [Compound 10] | 5.27 | 5.33 | 4.64 | 4.69 | 16% | 25% | 68% | 8% | 52% | 89% | 51% | -45% | 77% | 71% | 16% | 14% | -8% | –
6 | 5.27 | 5.97 | 5.52 | O=c1cc(N2CCOCC2)oc2c(-c3ccccc3)cccc12 [LY294002, reference compound] | 4.12 | 4.29 | 5.22 | 4.89 | – | – | – | – | – | – | – | – | – | – | – | – | – | difference of EC50 between FRAT2-C9M-TF1 and C9M-TF1 cells (FRAT2-C9M-TF1 cells [1]; FRAT2-C9M-TF1 cells more resistant): approx. 8.5 fold; pEC50 (FRAT2-C9M-TF1 cells [17]): ~4.30; pEC50 (C9M-TF1 cells [18]): ~5.22; pEC50 (HCT116): 4.68
